We go through 29 molecules from US10377717B2, “Farnesoid X receptor agonists and uses thereof” (Metacrine, Inc., priority 2015, dated 2019).

As a reminder, the pEC50 is −log10 of the EC50, conventionally taken in molar units.

The structures appear in SMILES notation. pEC50: −log10 of the molar value. Some results are limits rather than exact numbers.

The target in the test is hFXR (Homo sapiens (Human), UniProt Q96RI1). As to the kind of experiment: In Vitro FXR Assay (TK), luciferase reporter in transfected CV-1 cells. Type of test: cell-based. The following applies: TK-ECRE-luc reporter, hFXR/hRXR, 18 hrs, maximum efficacy <25% of Fexaramine control classified as '+'. The protocol: CV-1 cells were seeded at a density of 2,000,000 cells in a T175 flask with DMEM+10% charcoal double-stripped FBS and incubated at 37° C. in 5% CO2 for 18 h (O/N).
hFXR, sequence (Q96RI1 whole entry): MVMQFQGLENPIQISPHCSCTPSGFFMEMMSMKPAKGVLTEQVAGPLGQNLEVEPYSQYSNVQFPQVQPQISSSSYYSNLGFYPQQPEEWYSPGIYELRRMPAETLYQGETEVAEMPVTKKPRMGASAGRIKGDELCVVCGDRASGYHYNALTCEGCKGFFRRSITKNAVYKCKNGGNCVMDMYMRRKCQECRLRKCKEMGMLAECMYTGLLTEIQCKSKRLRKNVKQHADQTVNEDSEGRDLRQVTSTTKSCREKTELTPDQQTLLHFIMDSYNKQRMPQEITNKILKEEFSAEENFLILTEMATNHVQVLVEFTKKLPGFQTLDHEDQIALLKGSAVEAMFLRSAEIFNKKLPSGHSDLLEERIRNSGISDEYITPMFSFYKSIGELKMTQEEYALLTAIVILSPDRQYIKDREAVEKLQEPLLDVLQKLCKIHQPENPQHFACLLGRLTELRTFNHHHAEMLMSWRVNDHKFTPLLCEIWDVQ
hFXR, sequence (P19793 whole entry partner): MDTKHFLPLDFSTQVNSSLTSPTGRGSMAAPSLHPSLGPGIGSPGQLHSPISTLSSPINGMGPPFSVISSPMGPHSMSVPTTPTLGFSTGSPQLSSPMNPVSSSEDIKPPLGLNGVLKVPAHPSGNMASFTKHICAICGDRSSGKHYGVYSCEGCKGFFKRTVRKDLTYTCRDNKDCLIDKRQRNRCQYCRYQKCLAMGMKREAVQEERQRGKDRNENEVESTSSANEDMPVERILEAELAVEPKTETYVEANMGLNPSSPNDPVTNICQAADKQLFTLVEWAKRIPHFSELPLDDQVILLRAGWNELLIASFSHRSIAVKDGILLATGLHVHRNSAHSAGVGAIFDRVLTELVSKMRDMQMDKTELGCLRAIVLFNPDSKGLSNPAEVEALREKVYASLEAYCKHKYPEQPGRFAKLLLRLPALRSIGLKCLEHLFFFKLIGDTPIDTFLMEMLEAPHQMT
After 18 h of incubation, the medium in the T175 flask was changed with fresh DMEM+10% charcoal super-stripped serum. In a polypropylene tube, 2500 μL OptiMEM (Life Technologies, Cat #31985-062) was combined with expression plasmids for hFXR, hRXR, TK-ECRE-luc and pCMX-YFP. The tube was then briefly vortexed and incubated at room temperature for 5 minutes. Transfection reagent (X-tremeGENE HP from Roche, Cat #06 366 236 001) was added to the OptiMEM/plasmid mixture vortexed and incubated at room temperature for 20 minutes. Following incubation, the transfection reagent/DNA mixture complex was added to cells in the T175 flask and the cells were incubated at 37° C. in 5% CO2 for 18 h (O/N).
Compounds were serially diluted in DMSO and added to transfected CV-1 cells. The cells were then incubated for 18 hrs. The next day cells were lysed and examined for luminescence.
A general note: Reporter assays use an easily measured gene product as a stand-in for the process of interest.
`COC(=O)c1ccc2c(N(Cc3ccc(-c4ccc(C)nc4)cc3)C(=O)CC(C)(C)C)nccc2c1` [Compound 39, Methyl 1-(3,3-dimethyl-N-(4-(6-methylpyridin-3-yl)benzyl)butanamido)isoquinoline-6-carboxylate]: the pEC50 was 5.00 to 6.00.

Molecule `COC(=O)c1ccc2c(N(Cc3ccc(-c4ccc(OC)c(C)c4)cc3)C(=O)C3CCCCCC3)nccc2c1` [Compound 25, Methyl 1-(N-((4′-methoxy-3′-methyl-[1,1′-biphenyl]-4-yl)methyl)cycloheptanecarboxamido) isoquinoline-6-carboxylate] showed a pEC50 of no less than 6.00.

For the molecule `COC(=O)c1ccc2c(N(Cc3ccc(-c4ccc(Cl)c(C#N)c4)cc3)C(=O)CC(C)(C)C)nccc2c1` [Compound 32, Methyl 1-(N-((4′-chloro-3′-cyano-[1,1′-biphenyl]-4-yl)methyl)-3,3-dimethylbutanamido)isoquinoline-6-carboxylate], the pEC50 is 5.00 to 6.00.

As for `COc1ccc(-c2ccc(CN(C(=O)CC(C)(C)C)c3nccc4cc(/C=C/C(=O)O)ccc34)cc2)cc1C` [Compound 103, (E)-3-(1-(N-((4′-Methoxy-3′-methyl-[1,1′-biphenyl]-4-yl)methyl)-3,3-dimethylbutanamido)isoquinolin-6-yl)acrylic Acid], the pEC50 was 5.00 to 6.00.

Turning to `CCOC(=O)c1ccc2c(N(Cc3ccc(-c4ccc(OC)c(C)c4)cc3)C(=O)C3CCCCC3)nccc2c1` [Compound 21, Ethyl 1-(N-((4′-methoxy-3′-methyl-[1,1′-biphenyl]-4-yl)methyl)cyclohexanecarboxamido) isoquinoline-6-carboxylate], the negative logarithm of the EC50 (pEC50) is no less than 6.00.

In turn, `COC(=O)c1ccc2c(N(Cc3ccc(-c4ccc(OC)c(C)c4)cc3)C(=O)CC3CCC3)nccc2c1` [Compound 79, Methyl 1-(2-cyclobutyl-N-((4′-methoxy-3′-methyl-[1,1′-biphenyl]-4-yl)methyl)acetamido)isoquinoline-6-carboxylate] gave a pEC50 of no less than 6.00.

In the case of `COC(=O)c1ccc2c(N(Cc3ccc(-c4ccc(OC(F)F)cc4)cc3)C(=O)CC(C)(C)C)nccc2c1` [Compound 57, Methyl 1-(N-((4′-(difluoromethoxy)-[1,1′-biphenyl]-4-yl)methyl)-3,3-dirnethylbutanamido)isoquinoline-6-carboxylate], the pEC50 was 5.00 to 6.00.

`COC(=O)c1ccc2c(N(Cc3ccc(-c4ccc5c(c4)OCC5)cc3)C(=O)CC(C)(C)C)nccc2c1` [Compound 47, Methyl 1-(N-(4-(2,3-dihydrobenzofuran-6-yl)benzyl)-3,3-dimethylbutanamido)isoquinoline-6-carboxylate] gave a pEC50 of no less than 6.00.

On to `COCCc1ccc(-c2ccc(CN(C(=O)CC(C)(C)C)c3nccc4cc(C(=O)OC)ccc34)cc2)cc1` [Compound 62, Methyl 1-(N-((4′-(2-methoxyethyl)-[1,1′-biphenyl]-4-yl)methyl)-3,3-dimethylbutanamido)isoquinoline-6-carboxylate], for which the pEC50 was no less than 6.00.

In turn, `COC(=O)c1ccc2c(N(C[C@H]3CC[C@H](c4ccc(OC)cc4)CC3)C(=O)CC(C)(C)C)nccc2c1` [Compound 94, Methyl 1-(N-((trans-4-(4-methoxyphenyl)cyclohexyl)methyl)-3,3-dimethylbutanamido)isoquinoline-6-carboxylate] had a pEC50 of no less than 6.00.

Molecule `COc1ccc([C@H]2CC[C@H](CN(C(=O)CC(C)(C)C)c3nccc4cc(C(=O)O)ccc34)CC2)cc1C` [Compound 100, 1-(N-((trans-4-(4-Methoxy-3-methylphenyl)cyclohexyl)methyl)-3,3-dimethylbutanamido)isoquinoline-6-carboxylic Acid] had a pEC50 of 5.00 to 6.00.

Molecule `COC(=O)c1ccc2c(N(Cc3ccc(-c4ccc5c(c4)CCN5C)cc3)C(=O)CC(C)(C)C)nccc2c1` [Compound 64, Methyl 1-(3,3-dimethyl-N-(4-(1-methylindolin-5-yl)benzyl)butanamido)isoquinoline-6-carboxylate] showed a pEC50 of no less than 6.00.

As to `COC(=O)c1ccc2c(N(Cc3ccc(-c4ccc(OC)c(Cl)c4)cc3)C(=O)[C@H]3CC[C@H](O)CC3)nccc2c1` [Compound 66, Methyl 1-(trans-N-((3′-chloro-4′-methoxy-[1,1′-biphenyl]-4-yl)methyl)-4-hydroxycyclohexanecarboxamido) isoquinoline-6-carboxylate], the pEC50 is no less than 6.00.

Regarding `COC(=O)c1ccc2c(N(Cc3ccc(-c4ccc(OC)c(C)c4)c(C#N)c3)C(=O)CC(C)(C)C)nccc2c1` [Compound 26, Methyl 1-(N-((2-cyano-4′-methoxy-3′-methyl-[1,1′-biphenyl]-4-yl)methyl)-3,3-dimethylbutanamido)isoquinoline-6-carboxylate], the pEC50 was no less than 6.00.

As for `COC(=O)c1ccc2c(N(Cc3ccc(-c4ccc(C(F)(F)F)nc4)cc3)C(=O)CC(C)(C)C)nccc2c1` [Compound 33, Methyl 1-(3,3-dimethyl-N-(4-(6-(trifluoromethyl)pyridin-3-yl)benzyl)butanamido)isoquinoline-6-carboxylate], the pEC50 was 5.00 to 6.00.

In turn, `COC(=O)c1ccc2c(N(Cc3ccc(-c4ccc(OC)c(C)c4)cc3)C(=O)C(C)C)nccc2c1` [Compound 28, Methyl 1-(N-((4′-methoxy-3′-methyl-[1,1′-biphenyl]-4-yl)methyl)isobutyramido) isoquinoline-6-carboxylate] showed a pEC50 of no less than 6.00.

`COC(=O)c1ccc2c(N(Cc3ccc(-c4ccc(N(C)C)cc4)cc3)C(=O)C3CCCCC3)nccc2c1` [Compound 13, Methyl 1-(N-((4′-(dimethylamino)-[1,1′-biphenyl]-4-yl)methyl)cyclohexanecarboxamido) isoquinoline-6-carboxylate] gave a pEC50 of no less than 6.00.

In the case of `COC(=O)c1ccc2c(N(Cc3ccc(-c4cnc5c(ccn5C)c4)cc3)C(=O)CC(C)(C)C)nccc2c1` [Compound 49, Methyl 1-(3,3-dimethyl-N-(4-(1-methyl-1H-pyrrolo[2,3-b]pyridin-5-yl)benzyl)butanamido)isoquinoline-6-carboxylate], the pEC50 is no less than 6.00.

`CCCCC(=O)N(Cc1ccc(-c2ccc(OC)c(C)c2)cc1)c1nccc2cc(C(=O)OC)ccc12` [Compound 81, Methyl 1-(N-((4′-methoxy-3′-methyl-[1,1′-biphenyl]-4-yl)methyl)pentanamido) isoquinoline-6-carboxylate] had a pEC50 of no less than 6.00.

On to `COC(=O)c1ccc2ccc(N(Cc3ccc(-c4ccc(N(C)C)cc4)cc3)C(=O)C3CCCCC3)cc2c1` [Compound 15, Methyl 7-(N-((4′-(dimethylamino)-[1,1′-biphenyl]-4-yl)methyl)cyclohexanecarboxamido)-2-naphthoate], for which the pEC50 is no more than 5.00.

Turning to `CCCC(=O)N(Cc1ccc(-c2ccc(OC)c(C)c2)cc1)c1nccc2cc(C(=O)OC)ccc12` [Compound 82, Methyl 1-(N-((4′-methoxy-3′-methyl-[1,1′-biphenyl]-4-yl)methyl)butyramido)isoquinoline-6-carboxylate], the pEC50 was no less than 6.00.

In turn, `COC(=O)c1ccc2c(N(C[C@H]3CC[C@H](c4ccccc4OC)CC3)C(=O)CC(C)(C)C)nccc2c1` [Compound 92, Methyl 1-(N-((trans-4-(2-methoxyphenyl)cyclohexyl)methyl)-3,3-dimethylbutanamido)isoquinoline-6-carboxylate] had a pEC50 of no more than 5.00.

The molecule `COC(=O)c1ccc2c(N(Cc3ccc(-c4ccc(CO)cc4)cc3)C(=O)CC(C)(C)C)nccc2c1` [Compound 43, Methyl 1-(N-((4′-(hydroxymethyl)-[1,1′-biphenyl]-4-yl)methyl)-3,3-dimethylbutanamido)isoquinoline-6-carboxylate] gave a pEC50 of 5.00 to 6.00.

For the molecule `COc1ccc(-c2ccc(CN(C(=O)CC(C)(C)C)c3nccc4cc(C(=O)OC(C)C)ccc34)cc2)cc1C#N` [Compound 68, Isopropyl 1-(N-((3′-cyano-4′-methoxy-[1,1′-biphenyl]-4-yl)methyl)-3,3-dimethylbutanamido) isoquinoline-6-carboxylate], the pEC50 was no less than 6.00.

Molecule `COC(=O)c1ccc2c(N(Cc3ccc(-c4ccc(OC)c(C)c4)cc3)C(=O)CC3CCCCC3)nccc2c1` [Compound 74, Methyl 1-(2-cyclohexyl-N-((4′-methoxy-3′-methyl-[1,1′-biphenyl]-4-yl)methyl)acetamido)isoquinoline-6-carboxylate] showed a pEC50 of 5.00 to 6.00.

Take `COC(=O)c1ccc2c(N(Cc3ccc(-c4ccc(OC)c(C)c4)cc3)C(=O)CC3CCCC3)nccc2c1` [Compound 72, Methyl 1-(2-cyclopentyl-N-((4′-methoxy-3′-methyl-[1,1′-biphenyl]-4-yl)methyl)acetamido)isoquinoline-6-carboxylate]: the pEC50 is no less than 6.00.

`COC(=O)c1ccc2c(N(Cc3ccc(-c4ccc(OC)c(C)c4)cc3)C(C)=O)nccc2c1` [Compound 27, Methyl 1-(N-((4′-methoxy-3′-methyl-[1,1′-biphenyl]-4-yl)methyl)acetamido)isoquinoline-6-carboxylate]: the pEC50 is no more than 5.00.

As to `COC(=O)c1ccc2c(N(Cc3ccc(-c4ccc(C)c(C#N)c4)cc3)C(=O)CC(C)(C)C)nccc2c1` [Compound 30, Methyl 1-(N-((3′-cyano-4′-methyl-[1,1′-biphenyl]-4-yl)methyl)-3,3-dimethylbutanamido)isoquinoline-6-carboxylate], the pEC50 was no less than 6.00.

In turn, `COC(=O)c1ccc2c(N(Cc3ccc(-c4ccc5c(ccn5C)c4)cc3)C(=O)CC(C)(C)C)nccc2c1` [Compound 44, Methyl 1-(3,3-dimethyl-N-(4-(1-methyl-1H-indol-5-yl)benzyl)butanamido)isoquinoline-6-carboxylate] had a pEC50 of no less than 6.00.
